Reference: patent US20110160121A1, “UNACYLATED GHRELIN AND ANALOGS AS THERAPEUTIC AGENTS FOR VASCULAR REMODELING IN DIABETIC PATIENTS AND TREATMENT OF CARDIOVASCULAR DISEASE” (ALIZE PHARMA SAS, priority 2008, published 2011)
Where “and” joins values, the source holds several entries; their conditions need not be identical. Equal values may be shown once. *1 amine or outer side, *2 acyl side, *3 side chain or, on linkers, in order; H or OH if unused. Where no end group is shown, it is not given here. [ ]: non-standard residue; d: D form. The star is where a group is joined. 125I‑Tyr = O=C([C@H](Cc1ccc(O[*:3])c([125I])c1)N[*:1])[*:2]; Octanoyl = CCCCCCCC(=O)*; 125I = [125I]*

Assays:
[1] = test system: CAC; assay: Detection of ROS in CAC (DCF-DA assay, FACS); assay type: cell-based, human; conditions: for level of ROS production in AGE-cultured cells: AGE-cultured CAC, FIG. 1C, 1F; for baseline level of ROS production: CAC, compared to untreated cells, FIG. 1B, 1E
Experimental: First, cell-cycle progression in response to UAG and AG was evaluated. […] To investigate whether this effect relies on inhibition of baseline ROS production, DCF-DA assay was performed. […] H2O2 was used as positive control. AGE-mediated damage signals mainly rely on ROS production (Ref. 29). […] Detection of ROS—DCF-DA (0.5 μM final concentration) was added to CAC in the indicated culture conditions. At the indicated times, the cells were subjected to FACS analysis and processed as previously described (Ref. 22). H2O2 was used as positive control.

[2] = test system: CAC membranes; assay: Competition binding with [125I-Tyr4]-UAG on CAC membranes; parameters: species or system human
From the text: The specific binding of [^125I-Tyr^4]-UAG (calculated as difference between binding in the absence, control, and in the presence of UAG) represented about 75% of the control value (P<0.001) and was detected either on fresh (0.25 and 0.26 fmol) or frozen-thawed (0.20 and 0.33 fmol) CAC membranes from two different cell preparations.

[3] = test system: CAC; assay: CAC mobilization assay in healthy subjects and diabetic patients; assay type: in vivo, human; conditions: diabetic patients compared to normal subjects, treated for 6 hours; FIG. 3B
Experimental: This observation led to investigate the effect of UAG treatment on BM CAC mobilization. To this end, normal subject and diabetic patients were treated with UAG or saline for 6 hours. After treatment, CAC were recovered from 4 control subjects and 4 diabetic patients, analyzed by FACS analysis and counted. […] Black lines refer to preimmune IgG used as negative control and grey lines refer to surface marker expression. Similar results were obtained when CAC from untreated diabetic patients or untreated or treated healthy subjects were analyzed (data not shown).
All the subjects underwent the following testing session: • UAG (3.0 μg/kg/h iv. as infusion for 12 h from 0 to 12 hours); • isotonic saline (infusion from 0 to 12 hours).
Mobilization assay—CAC recovered from healthy subjects and diabetic patients, treated with UAG or saline for 6 h and 12 h, were evaluated. Total number of MNC was counted by 3 independent investigators. The percentage of CAC was calculated by comparing CAC obtained from diabetic patients and healthy donors, treated for 6 h and 12 h with UAG, AG or saline, to CAC recovered at time 0.

[4] = test system: human microvascular endothelial cells (HMVECs); conditions: exogenous AG, Ref. 4; cited from earlier work
[5] = test system: human arteries; conditions: Ref. 35; cited from earlier work
[6] = test system: cardiomyocytes; conditions: Ref. 8; cited from earlier work
[7] = test system: human umbilical vein endothelial cells (HUVECs); conditions: Ref. 5; cited from earlier work
[8] = test system: CAC; assay: CAC cell-cycle progression (percentage of cells in S phase, FACS); assay type: cell-based, human; conditions: cultured CAC; effect still evident after 7 days of culture; FIG. 1A
Experimental: First, cell-cycle progression in response to UAG and AG was evaluated. […] To investigate whether this effect relies on inhibition of baseline ROS production, DCF-DA assay was performed. […] H2O2 was used as positive control. AGE-mediated damage signals mainly rely on ROS production (Ref. 29). […] Isolation and Culture of CAC from Peripheral Blood Mononuclear Cells—Peripheral-blood mononuclear cells (PB-MNC) isolated by Fycoll Histopaque 1077 (Sigma) were resuspended in 20% FBS 199 Medium and plated on fibronectin-coated dishes (Biocoat, Becton Dickinson Labware) as described by Hill et al. (Ref. 19). Human UAG studies were performed on CAC recovered from normal donors and diabetic patients. The purity of sorted cells was assessed by FACS analysis (Ref. 20). For experiments, the isolated CAC were cultured under 5% CO2 at 37° C. for 4 days on 20 μg/ml fibronectin-coated dishes in EGM-2 medium containing 10% FBS, hydrocortisone, human Fibroblast Growth Factor, Vascular Endothelial Growth Factor, Insulin Growth Factor 1, ascorbic acid, human Epidermal Growth Factor, gentamicin and amphotericin-B (Cambrex, Walkersville, Md., USA) alone or in combination with 1 μM UAG and 1.2 mg/ml AGE. […] Cell surface molecules were evaluated by flow cytometry as previously described (Ref. 24). Frequency of marker-positive cells is expressed as mean±standard deviation (SD).

[9] = test system: CAC; assay: Expansion (S phase) of CAC recovered from treated patients, cultured with IL-3; assay type: in vivo, human; conditions: cells recovered from treated diabetic patients; FIG. 3C
Experimental: To confirm their vascular features, the cells recovered from patients and controls were cultured with IL-3; which is able to induce expansion and arterial morphogenesis of CD45^+ cells derived from both peripheral blood and BM (Ref. 28).
Flow Cytometry—To analyze CAC cell-cycle progression, cells recovered from diabetic, healthy subjects, NOD/SCID, ob/ob and wt mice, were cultured in EBM-2 supplemented with IL-3 (10 ng/ml), FACS analysis was performed as previously described (Ref. 20). Cell surface molecules were evaluated by flow cytometry as previously described (Ref. 24). Frequency of marker-positive cells is expressed as mean±standard deviation (SD).

[10] = biological target: specific binding sites for UAG on CAC membranes; assay: radioligand binding, fresh CAC membranes, two cell preparations
[11] = biological target: specific binding sites for UAG on CAC membranes; assay: radioligand binding, frozen-thawed CAC membranes, two cell preparations
[12] = biological target: specific binding sites for UAG on CAC membranes; assay: saturation binding on CAC membranes
[13] = biological target: specific binding sites for UAG on CAC membranes; assay: radioligand binding to CAC membranes; difference between binding without and with 100 nM unlabelled UAG
[14] = biological target: specific binding sites for UAG on CAC membranes; assay: saturation binding on CAC membranes, Scatchard analysis

Molecule: Ser-Pro-Glu-His-Gln-Arg-Val-Gln (SPEHQRVQ; not fully specified (C-terminus); printed as Ser-Pro-Glu-His-Gln-Arg-Val-Gln; listed as Homo sapiens) [UAG (6-13)]
- level of ROS production in AGE-cultured cells [1]: the level of ROS production in AGE-cultured cells was reduced
- baseline level of ROS production [1]: reduces the baseline level of ROS production
- inhibition of binding of [125I-Tyr4]-UAG to CAC membranes ([2]; 100 nM competitor, 0.25 nM radioligand, FIG. 5A): inhibited

Molecule: AG: 28 amino acid peptide with an n-octanoyl modification on the Ser3 residue; endogenous ligand of GHSR (GSS(Octanoyl)FLSPEHQRVQQRKESKKPPAKLQPR) [reference compound]
- number of recovered cells (CAC) [3]: No statistical differences were detected
- cell proliferation, migration, in vitro angiogenesis and ERK2 phosphorylation [4]: significantly increased cell proliferation, migration, in vitro angiogenesis and ERK2 phosphorylation
- vasodilator action [5]: have vasodilator actions in human arteries
- inhibition of experimentally-induced cell death [6]: inhibit experimentally-induced cell death
- level of ROS production in AGE-cultured cells [1]: no effects could be detected
- intracellular ROS production in diabetic-recovered cells ([1]; CAC isolated from type 2 diabetic patients, treated in vitro, FIG. 1D): not AG, reduced intracellular ROS production
- baseline level of ROS production [1]: A protective effect failed to be detected
- basal and TNF-alpha-induced chemotactic cytokine production and mononuclear cell adhesion [7]: inhibit basal and TNF-α-induced chemotactic cytokine production and mononuclear cell adhesion
- percentage of cells in S phase [8]: not AG, was able to induce a significant increase
- cell expansion (cells in S phase) with IL-3 [9]: not from AG-treated diabetic patients, underwent cell expansion

Molecule: [^125I-Tyr^4]-UAG: radioligand used for binding to CAC membranes (GSS[125I‑Tyr]LSPEHQRVQQRKESKKPPAKLQPR)
- specific binding of [125I-Tyr4]-UAG ([2]; difference between binding in the absence and in the presence of 100 nM UAG, P<0.001): about 75 % of the control value
- specific binding of [125I-Tyr4]-UAG ([2]; fresh CAC membranes, two different cell preparations): 0.25 fmol and 0.26 fmol
- specific binding of [125I-Tyr4]-UAG ([2]; frozen-thawed CAC membranes, two different cell preparations): 0.20 fmol and 0.33 fmol

Molecule: GSSY(125I)LSPEHQRVQQRKESKKPPAKLQPR (ends and bridges not checked) [[125I-Tyr4]-UAG]
- specific binding [10]: 0.25 fmol and 0.26 fmol
- specific binding [11]: 0.2 fmol and 0.33 fmol
- concentration at maximum specific binding [12]: 2 nM
- specific binding (% of control value) [13]: 75%
- Bmax (fmol/mg membrane protein) [14]: 10.7
- Kd [14]: 0.48 nM
